Test results as given in patent US11246882B2, “Pharmaceutical composition for inhibiting resistance against anticancer drugs of patient suffering from ovarian cancer comprising NAG-1 inhibitor as active ingredient” (PUSAN NATIONAL UNIVERSITY INDUSTRY-UNIVERSITY COOPERATION …, priority 2015, dated 2022).

Key:
[1] = system: ovarian cancer stem cells (R182); assay: Cell viability by MTT assay: resistance of ovarian cancer stem cells against Taxol under NAG-1 regulation; format: cell-based, Human
Description: Human epithelial ovarian cancer stem cell line R182 cells were provided by Prof. Gil Mor (Yale University School of Medicine). A2780 cells were purchased from American Type Culture Collection (Manassas, Va.). Cells were maintained in RPMI 1640 medium (supplemented with 20% [v/v] heat-inactivated FBS, 50 U/ml penicillin, and […] streptomycin) in a 5% CO2 humidified incubator at 37° C. Cell numbers were counted by trypan blue (Sigma-Aldrich, St. Louis, Mo., USA) using a hemocytometer according to dye exclusion assay.
200 μl of the cultured cancer cells were seeded into a 96-well plate to have 5×10^3 cells/well, and cultured for 24 hours at a temperature of 37° C. in a wet incubator with carbon 5% and […] supplied thereto. Then, an empty vector (pSilencer 4.1-CMV-neo vector, Ambion, USA) and shRNA specific to NAG-1 were added to the ovarian cancer cells, cultured for 48 hours, and treated for 48 hours with an anticancer drug, Taxol, according to the concentrations. 50 μl of MTT solution (1 mg/ml) in PBS was added to each well, and cultured again for 6 hours. After the formation of formazan was confirmed, the MTT solution was completely removed. […] Afterwards, a micro plate reader (Molecular Devices, USA) was used to measure absorbance at 560 nm. Accordingly, the relative cell viability was calculated when cells that were not treated with an anticancer drug was considered as 100%. […]

ovarian cancer cells = assay: Treatment of ovarian cancer cells with the anticancer drug Taxol; format: cell-based; conditions: ovarian cancer cells other than stem cells

| Compound | resistance against the anticancer drug (Taxol), amount of living cells by MTT assay ([1]; R182 cells, shRNA added, cultured 48 hours, then Taxol 48 hours, compared with empty vector (FIG. 5)) | cell death of ovarian cancer stem cells on treatment with anticancer drug ([1]; ovarian cancer stem cells) | cell death of ovarian cancer cells on treatment with anticancer drug (ovarian cancer cells) |
| --- | --- | --- | --- |
| shRNA specific to NAG-1: shRNA having SEQ ID NO: 1 (ACAUGCACGCGCAGAUCAA), inhibitor of expression of NAG-1 protein; expression vector | the resistance against the anticancer drug was reduced | – | – |
| CC(=O)O[C@H]1C(=O)[C@@]2(C)[C@H]([C@H](OC(=O)c3ccccc3)[C@]3(O)C[C@H](OC(=O)[C@H](O)[C@@H](NC(=O)c4ccccc4)c4ccccc4)C(C)=C1C3(C)C)[C@]1(OC(C)=O)CO[C@@H]1C[C@@H]2O [Taxol] | – | ovarian cancer stem cells did not die | ovarian cancer cells die |
